Data as given in patent publication US12492403B2, “Aptamers and the use thereof in the treatment of cancer” (FUNDACIÓN PARA LA INVESTIGACIÓN BIOMÉDICA DEL HOSPITAL …, priority 2018, dated 2025).

Columns and labels:
MNK1aΔ77 = MNK1aΔ77 (Homo sapiens, UniProt Q9BUB5); assay: ELONA binding of biotin-labeled aptamer; conditions: apMNKQ2-Bio at 20 nM, GST-MNK1aΔ77 0.2 μg/well
Experimental: (§1) FIGS. 5A-5C. Characterization of the interaction of aptamer apMNKQ2 with MNK1 by means of ELONA. (A) ELONAs in which GST-MNKs previously adsorbed in 96-well plates at 0.2 μg/well (3 pmol/well) with apMNKQ2-Bio at 20 nM were incubated (FIG. 5A). The bars represent the mean±SEM of at least 3 independent experiments (*p<0.05, **p<0.01, and ***p<0.001 with respect to the blank and c p<0.05, b p<0.01, and a p<0.001 MNK1b with respect to MNK1a). ELONAs in which concentrations of 0 to 500 nM of apMNKQ2 were incubated (FIGS. 5A and 5C).
(§2) To determine the binding of the aptamers to MNK1a or MNK1b, 200 ng of protein/well diluted in a coating solution (KPL, USA) in a final volume of 100 μL/well were added to a Maxisorp Nunc 96-well ELISA plate (ThermoFisher Scientific, USA). The plate was incubated overnight at 4° C. under stirring. Aptamers were then added at the corresponding concentration according to the assay, in a final volume of 100 μL/well of BSA-free aptamer buffer for 1 hour at 37° C. under stirring. All the aptamers used were labeled with biotin and had been previously denatured at 90° C. for 10 minutes and then kept at 4° C. for 10 minutes in the BSA-free aptamer buffer. To detect the binding of the aptamer to the protein, 100 μL/well of streptavidin-peroxidase (GE Healthcare, United Kingdom) diluted 1/1000 in the aptamer buffer at 37° C. for 1 hour under stirring were added. To develop the plate, 100 μL/well of ABTS solution (Roche, Switzerland) were added, and it was incubated in darkness at room temperature, with measurements being taken every 10 minutes at a wavelength of 405 nm in an Infinite F200 spectrophotometer (TECAN, Switzerland).

MNK1b = MNK1b (Homo sapiens, UniProt Q9BUB5); assay: ELONA binding of biotin-labeled aptamer
Sequence of MNK1b (Q9BUB5 1-347 isoform Q9BUB5-3): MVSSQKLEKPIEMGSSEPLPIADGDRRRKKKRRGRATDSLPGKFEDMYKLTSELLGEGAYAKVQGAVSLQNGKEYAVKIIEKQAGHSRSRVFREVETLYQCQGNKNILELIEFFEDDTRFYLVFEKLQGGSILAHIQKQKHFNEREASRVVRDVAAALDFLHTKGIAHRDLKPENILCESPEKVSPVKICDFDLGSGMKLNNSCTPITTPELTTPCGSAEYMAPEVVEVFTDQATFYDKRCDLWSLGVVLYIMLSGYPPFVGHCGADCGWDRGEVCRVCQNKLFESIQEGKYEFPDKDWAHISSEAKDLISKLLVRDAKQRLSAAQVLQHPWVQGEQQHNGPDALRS
Experimental: as §1, §2

MNK1a = MNK1a (Homo sapiens, UniProt Q9BUB5); assay: ELONA binding of biotin-labeled aptamer
Sequence of MNK1a (Q9BUB5 1-424 isoform Q9BUB5-2): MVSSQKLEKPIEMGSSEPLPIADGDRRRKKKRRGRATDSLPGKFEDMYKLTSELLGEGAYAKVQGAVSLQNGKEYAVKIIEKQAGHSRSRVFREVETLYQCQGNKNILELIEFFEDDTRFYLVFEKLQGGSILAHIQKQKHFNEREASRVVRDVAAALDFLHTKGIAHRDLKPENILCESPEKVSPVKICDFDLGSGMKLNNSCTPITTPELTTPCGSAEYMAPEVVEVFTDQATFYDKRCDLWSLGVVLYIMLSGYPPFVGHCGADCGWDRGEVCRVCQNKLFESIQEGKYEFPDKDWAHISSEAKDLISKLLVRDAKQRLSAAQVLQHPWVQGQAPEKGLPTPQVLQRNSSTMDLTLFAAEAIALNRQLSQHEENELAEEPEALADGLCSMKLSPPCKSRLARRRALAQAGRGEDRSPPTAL
Experimental: as §1, §2

MDA-MB-468 cells = assay: Transwell invasion assay with Matrigel; format: cell-based, human; conditions: MDA-MB-468, 50 nM
Experimental: (§3) FIGS. 13A, 13B and 13C. Effect of aptamer apMNKQ2 on the migration and invasion of breast cell lines. The three lines of study were seeded in 6-well plates at a density of 2.5×10^5 cells/well and transfected at 24 hours with apMNKQ2 at the established working concentrations. The cell lines were deprived of serum after 6 hours and collected and re-seeded (4×10^4 cells/well) after 24 hours in a transwell […], in order to perform migration and invasion assays, respectively. At 24 hours, the membranes of the transwell are stained with Hoechst and cells that have gone through the membranes are quantified using fluorescence microscopy (FIG. 13A). The boxes (FIGS. 13B and 13C) represent the mean±the maximum and minimum of 4-5 independent experiments (*p<0.05, **p<0.01, and ***p<0.001 with respect to the control aptamer AT).
(§4) Cell migration and invasion assays were performed using transwell (Corning, USA). […] After that time, they were collected, counted, and reseeded 4×10^4 cells in 300 μl of a serum-free complete medium inside the transwell (migration) or a transwell on which a layer of 100 μL of Matrigel (Corning, USA) (invasion) had previously been polymerized. […] Finally, two washes in PBS were performed, and 5 photographs of each membrane of the transwell were taken using a fluorescence microscope (Olympus IX70). The number of cells was analyzed using the imageJ program. […]

MDA-MB-231 cells = assay: Transwell invasion assay with Matrigel; format: cell-based, human; conditions: MDA-MB-231, 400 nM
Experimental: as §3, §4

4T1 cells = assay: Transwell migration assay in 4T1 cells; format: cell-based, mouse; conditions: 500 nM, 24 hours migration
Experimental: FIG. 21A-21E. In vivo efficacy of apMNKQ2 in a mouse metastatic model with an orthotopic xenograft of 4T1 cells. (A) Effect of apMNKQ2 aptamer on the proliferation of 4T1 cells (mouse breast tumor line). 4T1 cells were seeded in p96 at a density of 1.5×10^3 cells/well. […] The graph (FIG. 21A) represents the means±SEM of 3 independent experiments. (B) Effect of apMNKQ2 aptamer on migration and invasion of 4T1 cells. Cells were seeded in p6 at a density of 2×10^5 cells/well and transfected with 500 nM apMNKQ2 at 24 hours. […] At 24 hours (migration) or 48 h (invasion), the transwell membranes were stained with Hoechst and the cells that had passed through the fluorescence microscopy were quantified. […] The number of metastases is analyzed by the reverse staining method (with Chinese ink) and the metastases grouped according to their size in four groups (0.5, 1, 2 and >2). […]
as §4, with “IX70).” for “IX70). The number of cells was analyzed using the imageJ program.”

Sequence of MNK1aΔ77 (Q9BUB5 1-347 isoform Q9BUB5-2 limits assumed): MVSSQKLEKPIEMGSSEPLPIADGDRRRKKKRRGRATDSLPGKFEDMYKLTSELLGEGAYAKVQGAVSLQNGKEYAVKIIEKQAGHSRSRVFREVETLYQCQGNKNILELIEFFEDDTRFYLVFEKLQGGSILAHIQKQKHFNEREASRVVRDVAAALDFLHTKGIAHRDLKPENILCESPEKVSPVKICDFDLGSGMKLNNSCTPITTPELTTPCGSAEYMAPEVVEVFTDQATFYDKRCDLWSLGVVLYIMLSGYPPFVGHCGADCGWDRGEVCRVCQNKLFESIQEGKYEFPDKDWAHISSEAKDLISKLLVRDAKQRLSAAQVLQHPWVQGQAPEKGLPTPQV

5′TGGGGTGGGCGGGCGGGGGTGGGGGTGGT-3′ (DNA, backbone and methylation of C not given here; further chemistry not fully specified) [apMNKQ2]
binding (ELONA) (MNK1aΔ77): not significant | Kd (MNK1b; ELONA, biotin-labeled aptamer 0 to 500 nM, GST-MNK1b): 15.5 ± 2.36 nM | binding (ELONA) (MNK1b; apMNKQ2-Bio at 20 nM, GST-MNK1b 0.2 μg/well): binds significantly | affinity for MNK1b relative to MNK1a (MNK1b; from ELONA KD values): four-fold higher | Kd (MNK1a; ELONA, biotin-labeled aptamer 0 to 500 nM, GST-MNK1a): 66.1 ± 20.2 nM | binding (ELONA) (MNK1a; apMNKQ2-Bio at 20 nM, GST-MNK1a 0.2 μg/well): binds significantly | invasion (transwell with Matrigel) (MDA-MB-468 cells): significant reduction of invasion | invasion (transwell with Matrigel) (MDA-MB-231 cells): significant reduction of invasion | migration of 4T1 cells (4T1 cells): significantly decrease
